{
  "source": "patent US20070004660A1",
  "about": "“Synergistic Modulation of Flt3 Kinase Using Alkylquinolines and Alkylquinazolines” (priority 2005, published 2007)",
  "key": {"MV4-11 cells": {"system": "MV4-11 cells", "experiment": "Annexin V staining (apoptosis) of MV4-11 cells", "format": "cell-based, human", "settings": "Tipifarnib and FLT3 inhibitor Compound A, fixed ratio 4:1, 48 hours", "procedure": "After the compound incubations, treated cells were harvested and stained with Annexin V-PE and 7-AAD using the Guava Nexin apoptosis kit according to the protocol in the Biological Activity Measurements section hereafter. Annexin V staining peaks at 60% because cells late in apoptosis begin to fall apart and are considered debris. […] Statistical analysis using the above described method of Chou and Talalay was also performed to determine the synergy of the combination. FIG. 11b depictes the isobolar analysis of the Tipifarnib and FLT3 inhibitor Compound A combination in inducing annexin V staining. […] The magnitude of the synergistic induction of apoptosis of MV4-11 cells by the combination of an FTI and a FLT3 inhibitor could not be predicted by those skilled in the art. […]\nAnnexin V Staining. To examine the apoptosis of the leukemic MV4-11 cell line, cells were treated with Tipifarnib and/or FLT3 inhibitor Compound A, and Annexin V binding to phosphotidylserine on the outer leaflet of the plasma membrane of apoptotic cells was monitored using the GuavaNexin assay reagent and the Guava personal flow cytometry system (Guava Technologies; Hayward, Calif.). […] All annexin positive cells were considered apoptotic and percent Annexin positive cells was calculated."}, "MV-4-11 tumor xenografts": {"system": "MV-4-11 tumor xenografts", "from_the_text": "Dosing was continued for sixteen consecutive days.\nValues represent the mean (±sem) of 10 mice per treatment group."}},
  "data": [
    {"smiles": "Cn1cncc1C(N)(c1ccc(Cl)cc1)c1ccc2c(c1)c(-c1cccc(Cl)c1)cc(=O)n2C", "note": "(single isomer, unassigned; (+)) [Tipifarnib, (+)-6-[amino(4-chlorophenyl)(1-methyl-1H-imidazol-5-yl)methyl]-4-(3-chlorophenyl)-1-methyl-2(1H)-quinolinone]", "values": [
      {"measurement": "shift of EC50 for induction of annexin V staining by the combination", "setting": "MV4-11 cells", "value": "more than eight-fold"},
      {"measurement": "effect on tumor growth", "setting": "MV-4-11 tumor xenografts; 50 mg/kg po single agent, 16 days", "value": "ineffective"},
      {"measurement": "overt toxicity", "setting": "MV-4-11 tumor xenografts; 16-day treatment, either agent alone or in combination", "value": "No overt toxicity"}
    ]}
  ]
}
